Experiments:
[1] = target: T1, progesterone receptors of rabbit uterus (Oryctolagus cuniculus, UniProt P06186); experiment: Relative binding affinity (ARL), progesterone receptors of rabbit uterus; settings: rabbit uterus cytosol, tritiated 17,21-dimethyl-19-nor-Δ4,9-pregnadiene-3,20-dione, cold reference hormone progesterone; for relative affinity of the bond (ARL), Progestogen, 2H: incubation 2H at 0° C.; for relative affinity of the bond (ARL), Progestogen, 24H: incubation 24H at 0° C.
T1 construct: The first test was on the progesterone receptors of rabbit uterus; from tissue; host or cells: uterus of estradiol-treated immature rabbits, 105,000 g supernatant (cytosol)
T1 sequence (P06186 1-930): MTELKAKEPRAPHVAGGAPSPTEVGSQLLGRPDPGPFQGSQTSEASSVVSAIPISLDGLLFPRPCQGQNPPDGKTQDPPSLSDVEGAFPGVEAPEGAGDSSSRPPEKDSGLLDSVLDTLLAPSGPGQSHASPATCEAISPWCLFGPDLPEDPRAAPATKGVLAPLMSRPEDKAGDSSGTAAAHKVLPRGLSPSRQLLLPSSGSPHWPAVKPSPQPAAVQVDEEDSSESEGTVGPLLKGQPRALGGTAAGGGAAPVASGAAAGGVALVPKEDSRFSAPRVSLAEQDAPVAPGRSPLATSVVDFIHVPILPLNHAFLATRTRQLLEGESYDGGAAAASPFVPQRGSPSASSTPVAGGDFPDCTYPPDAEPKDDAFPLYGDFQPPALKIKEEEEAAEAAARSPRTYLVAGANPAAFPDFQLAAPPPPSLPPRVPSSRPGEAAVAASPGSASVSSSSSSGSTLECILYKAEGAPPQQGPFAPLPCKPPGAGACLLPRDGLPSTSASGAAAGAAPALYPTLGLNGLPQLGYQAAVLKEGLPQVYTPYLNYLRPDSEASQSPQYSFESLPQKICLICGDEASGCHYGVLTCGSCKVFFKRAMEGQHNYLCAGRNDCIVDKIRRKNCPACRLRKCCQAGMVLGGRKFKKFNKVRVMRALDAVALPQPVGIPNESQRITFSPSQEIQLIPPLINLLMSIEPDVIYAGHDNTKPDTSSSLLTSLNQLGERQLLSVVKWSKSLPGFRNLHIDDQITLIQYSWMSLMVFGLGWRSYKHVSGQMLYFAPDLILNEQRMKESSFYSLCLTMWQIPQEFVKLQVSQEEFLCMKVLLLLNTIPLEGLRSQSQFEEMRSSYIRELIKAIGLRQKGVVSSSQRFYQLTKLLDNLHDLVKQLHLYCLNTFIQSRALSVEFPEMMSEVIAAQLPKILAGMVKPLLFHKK
Description: The first test was on the progesterone receptors of rabbit uterus in which immature rabbits weighing about 1 kg received a cutaneous application of […] of estradiol and 5 days after treatment, the animals were sacrificed. The […] was removed, weighed and homogenized at 0° C. with a Potter Teflon-glass ina buffered solution. TS (Tris 10 mM, 0.25M Saccharose, HCl, pH 7.4) (1 g of tissue per 50 ml of TS). The homogenate was ultracentrifuged at 105,000 g×90 minutes at 0° C. The surnageant samples were incubated at a time at (t) 0° C. with a constant concentration (T) of tritiated product (R) which is 17,21-dimethyl-19-nor-Δ^4,9 -pregnadiene-3,20-dione in the presence of increasing concentrations from 0 to 2500×10^-9 M or cold R or cold progestenone or cold test compound. The concentration of bound tritiated R was measured for each incubate by absorption technique on dextran carbon.
The relative affinity of the bond (ARL) was calculated in the same for the receptors. One traced the following 2 curves: the percentage of bond tritiated hormone B/T as a logarithmic function of the concentration of the cold reference hormone and B/T as a logarithmic function of the concentration of the cold test compound. Using the equation [formula] B/T max.=% of bound tritiated hormone for one incubation of tritiated hormone at concentration (T)
B/T min.=% of bound tritiated hormone for one incubation of tritiated hormone at a concentration T in the presence of a great excess of cold hormone (2500×10^-9 M).
The intersections of I50 lines and the curves permit an evaluation of the hormone concentration of the cold reference (CH) and the cold test compound (CX) which inhibited by 50% the bounding of tritiated hormone to the receptor. The ARL of the test compound was determined by the equation. [formula] and the following results were obtained.

[2] = system: mammary Tumoral cells MCF-7; experiment: Anti-proliferative activity against the increase of mammary tumoral cells MCF-7 (ADN by DABA fluorimetry); assay type: cell-based; settings: Homo sapiens, MCF7, 144 h; MCF-7 cells, SVF medium, 6 days, ADN content; read-out: CI50 in nM (concentration which inhibits by 50% the increase in the MCF 7 cells)
Description: The cell culture line MCF-7 was maintained in culture in SVF (1) medium at 37° C. in a humid atmosphere containing 5% CO2. The cells at subconfluence were collected by trypsination (0.05% trypsine, 0.02% EDTA) then rinsed by gentle centrifiguation. A sample of the cells in suspension was counted by the Malassez cell. To study the increase, the cells resuspended in SVF medium were innoculated at a rate of 30,000 cells per well in a multiwell plate (24 wells per 2.5 cm^2) 24 hours after the innoculation (Day 0), the test compound was added to the medium in an ethanolic solution (final ethanol concentration is 0.1%) a concentration of 10^-6 M. The control wells received the same concentration of ethanol. The mediums were totally renewed at 48 hours. At the end of the experiment (Day 6), the medium was aspirated and the cells were immediately fixed by 150 μl of methanol after a dose of ADN. The anti-proliferative activity of the products was determined by the capacity to inhibit ADN increase.
ADN is dosed by a fluorimetric method using DABA (3,5-diamino benzoic acid). 150 μl of DABA was added to each well and the plates were incubated for 45 minutes at 56° C. and then 1.5 ml of 1N hydrochloric acid was added. The fluoresence was measured with a fluorimeter (excitement length 400 nM-length of emission wave 500 nM). The amount of ADN per well was evaluated with respect to a standard scale obtained by treating under the same conditions an ADN standard of the calf thymus. The concentration in nM which inhibit by 50% the increase in the MCF 7 cells or CI50 was determined in the same manner with the results of the following Table.
The medium for culture of calf fetal serum (SVF) was prepared as follows: MEM medium (minimal essential medium) to which was added non-essential amino acids (GIBCO), peni-strepto (penicillin 100 U/ml, streptomycine 0.1 mg/ml), 0.1% fungizone, 50 ng/ml of insulin and a 10% final concentration of calf fetal serum free of endrogenic steroids.

CN(C)c1ccc([C@H]2C[C@@]3(C)[C@@H](CC[C@@]3(O)c3ccc(N(C)C)cc3)[C@@H]3CCC4=CC(=O)CCC4=C32)cc1 [Example 2, 11β,17α-bis-(4-dimethylamino-phenyl)-Δ^4,9-estradiene-17β-ol-3-one]
relative affinity of the bond (ARL), Progestogen, 2H [1]: 32
relative affinity of the bond (ARL), Progestogen, 24H [1]: 183
IC50 [2]: 500 nM

COc1ccc([C@]2(O)CC[C@H]3[C@@H]4CCC5=CC(=O)CCC5=C4[C@@H](c4ccc(N(C)C)cc4)C[C@@]32C)cc1 [Example 4, 11β-(4-dimethylamino-phenyl)-17α-(4-methoxy-phenyl)-Δ^4,9-estradiene-17β-ol-3-one]
relative affinity of the bond (ARL), Progestogen, 2H [1]: 51
relative affinity of the bond (ARL), Progestogen, 24H [1]: 264
IC50 [2]: 400 nM
